According to patent publication US7045343B2, “Sterilization indicator test packs” (3M Innovative Properties Company, priority 1998, dated 2006):

Tests used:
[1] = test system: enzyme associated with Bacillus stearothermophilus spores; experiment: Rapid enzyme fluorescence readout of dual rapid readout indicators after prevacuum steam sterilization; format: biochemical; settings: 4-pulse prevacuum steam 121° C.; for FLUORESCENCE - PERCENT POSITIVE 1 HR / FLUORESCENCE - PERCENT POSITIVE 2 HR / FLUORESCENCE - PERCENT POSITIVE 3 HR / FLUORESCENCE - PERCENT POSITIVE 4 HR: Example 4, 7–18 min
In short: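 Bacillus stearothermophilus ATCC 7953 spores were coated with a sterilant-resistant chemical solution and pipetted onto paper strips at about 1×10^6 spores per strip. Each strip sat in a dual rapid readout indicator beside a crushable inner container of nutrient medium holding 4-methylumbelliferyl-alpha-D-glucoside at pH 7.6. Indicators went through a 4-pulse prevacuum steam cycle at 121° C, were activated, incubated at 60° C, and read for fluorescence on a 3M ATTEST Model 190 Rapid Autoreader.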

[2] = test system: Bacillus stearothermophilus spores; experiment: Spore outgrowth (color change) of indicators after prevacuum steam sterilization; format: cell-based; settings: Example 4, 4-pulse prevacuum steam 121° C., 7–18 min
In short: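 Bacillus stearothermophilus ATCC 7953 spores were cleaned, mixed into a heated sterilant-resistant coating chemical solution and pipetted onto paper strips at about 1×10^6 spores per strip. The strips were dried and placed in indicators, then exposed to a 4-pulse prevacuum steam cycle at 121° C. After exposure the media ampoule was crushed, and growth was judged visually as a purple-to-yellow color change after 168 hours at 60° C.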

[3] = test system: enzyme associated with Bacillus stearothermophilus spores; experiment: Rapid enzyme fluorescence readout of indicators after hydrogen peroxide plasma sterilization; format: biochemical; settings: for FLUORESCENCE - PERCENT POSITIVE 1 HR / FLUORESCENCE - PERCENT POSITIVE 2 HR / FLUORESCENCE - PERCENT POSITIVE 3 HR / FLUORESCENCE - PERCENT POSITIVE 4 HR / FLUORESCENCE - PERCENT POSITIVE 5 HR: 1–22 min diffusion; for accuracy of sterilization indicators compared to indicators made with untreated spores: 1–3 hours after exposure
Protocol: (§1) Sterilization indicators for Examples 6–9 were prepared as described above with the exception that closure member 22 of the sterilization indicator was constructed of TYVEK™ high-density polyethylene fiber material, commercially available from E.I. du Pont de Nemours and Co., Wilmington, Del.
(§2) Sterilization indicators were made as described above with spores that had been coated with each of the chemicals and concentrations listed in Table 6. The indicators were placed in instrument trays and exposed to a hydrogen peroxide plasma sterilization procedure at 45–55° C. in a STERRAD™ 100SI GMP Sterilizer, obtained from Advanced Sterilization Products Co., Irvine, Calif. During the sterilization procedure a vacuum was drawn in the sterilization chamber for 5–6 minutes until the pressure was reduced to 300 mTorr. A 1.8 ml aliquot of an aqueous solution of 58–60% hydrogen peroxide was then injected into the sterilization chamber over a period of about 6 minutes, yielding an empty chamber concentration of […] hydrogen peroxide, and hydrogen peroxide vapor was allowed to diffuse throughout the chamber for 1–22 minutes at 6–10 Torr. A vacuum was then drawn, reducing the pressure to 500 mTorr and removing all detectable hydrogen peroxide vapor from the chamber.
(§3) After exposure to the sterilization procedure, the indicators were removed from the sterilizer and the inner containers containing the enzyme substrate and nutrient medium were crushed. The indicators were then incubated at 60° C. and examined for fluorescence every hour for 5 hours using a 3M™ ATTEST™ Model 190 Rapid Autoreader, commercially available from 3M Company, St. Paul, Minn. Additionally, spore growth, as indicated by a color change from purple to yellow, was determined visually after 168 hours of incubation.
(§4) The number of growth positive indicators detected after 168 hours of incubation is recorded in Table 6.
as §2, with “7.” for “6.”
as §2, with “8.” for “6.”, “chamber. […]” for “chamber.”

[4] = test system: Bacillus stearothermophilus spores; experiment: Spore outgrowth (color change) of indicators after hydrogen peroxide plasma sterilization; format: cell-based; settings: 1–22 min diffusion
Protocol: as §1, §2, §3, §4
as §2, with “7.” for “6.”
as §2, with “8.” for “6.”, “chamber. […]” for “chamber.”

Substance	FLUORESCENCE - PERCENT POSITIVE 1 HR ([1]; 50 mg/ml coating)	FLUORESCENCE - PERCENT POSITIVE 2 HR ([1]; 50 mg/ml coating)	FLUORESCENCE - PERCENT POSITIVE 3 HR ([1]; 50 mg/ml coating)	FLUORESCENCE - PERCENT POSITIVE 4 HR ([1]; 50 mg/ml coating)	FLUORESCENCE - PERCENT POSITIVE 1 HR ([1]; 100 mg/ml coating)	FLUORESCENCE - PERCENT POSITIVE 2 HR ([1]; 100 mg/ml coating)	FLUORESCENCE - PERCENT POSITIVE 3 HR ([1]; 100 mg/ml coating)	FLUORESCENCE - PERCENT POSITIVE 4 HR ([1]; 100 mg/ml coating)	NO. GROWTH POSITIVE 168 HR ([2]; 50 mg/ml coating)	NO. GROWTH POSITIVE 168 HR ([2]; 100 mg/ml coating)	FLUORESCENCE - PERCENT POSITIVE 1 HR ([3]; Example 6, 50 mg/ml coating)	FLUORESCENCE - PERCENT POSITIVE 2 HR ([3]; Example 6, 50 mg/ml coating)	FLUORESCENCE - PERCENT POSITIVE 3 HR ([3]; Example 6, 50 mg/ml coating)	FLUORESCENCE - PERCENT POSITIVE 4 HR ([3]; Example 6, 50 mg/ml coating)	FLUORESCENCE - PERCENT POSITIVE 5 HR ([3]; Example 6, 50 mg/ml coating)	NO. GROWTH POSITIVE 168 HR ([4]; Example 6, 50 mg/ml coating)	accuracy of sterilization indicators compared to indicators made with untreated spores [3]	other results
Hexaglyceryl Polyricinolate	0%	13.0%	52.2%	56.5%	9.7%	19.4%	32.3%	45.2%	23	31								FLUORESCENCE - PERCENT POSITIVE 1 HR ([3]; Example 7, 50 mg/ml coating): 83.3%; FLUORESCENCE - PERCENT POSITIVE 2 HR ([3]; Example 7, 50 mg/ml coating): 91.7%; FLUORESCENCE - PERCENT POSITIVE 3 HR ([3]; Example 7, 50 mg/ml coating): 91.7%; FLUORESCENCE - PERCENT POSITIVE 4 HR ([3]; Example 7, 50 mg/ml coating): 91.7%; FLUORESCENCE - PERCENT POSITIVE 5 HR ([3]; Example 7, 50 mg/ml coating): 91.7%; NO. GROWTH POSITIVE 168 HR ([4]; Example 7, 50 mg/ml coating): 12
Hexaglyceryl Dioleate	0%	0%	0%	0%	0%	0%	0%	0%	7	23	66.7%	100%	100%	100%	100%	6		
Decaglyceryl Pentaoleate	0%	0%	18.8%	31.3%	12.5%	25.0%	37.5%	45.8%	16	24	82.4%	94.1%	100%	100%	100%	17	improved	
Tetraglyceryl Monooleate	0.0%	52.9%	52.9%	58.8%	57.1%	100.0%	100.0%	100.0%	17	35	76.6%	90.9%	100%	100%	100%	11	improved	accuracy of sterilization indicators compared to indicators made with untreated spores [1]: improved
